Test results as given in patent US11066414B2, “Cot modulators and methods of use thereof” (Gilead Sciences, Inc., priority 2015, dated 2021).
Like-named read-outs stand apart in the source and are kept apart here.

Assays:
[1] = biological target: Human Cot (Homo sapiens (Human), UniProt P41279); test: High Throughput Cot Biochemical Assay; settings: Cot HTRF (TR-FRET) biochemical assay
[2] = test system: TNFα; test: Cot Monocyte TNFα Cell Based Assay
[3] = Homo sapiens, Monocyte, read-out: EC50 TNF, LPS-stimulated human monocytes, TNFα

Human Cot, sequence (P41279 30-397): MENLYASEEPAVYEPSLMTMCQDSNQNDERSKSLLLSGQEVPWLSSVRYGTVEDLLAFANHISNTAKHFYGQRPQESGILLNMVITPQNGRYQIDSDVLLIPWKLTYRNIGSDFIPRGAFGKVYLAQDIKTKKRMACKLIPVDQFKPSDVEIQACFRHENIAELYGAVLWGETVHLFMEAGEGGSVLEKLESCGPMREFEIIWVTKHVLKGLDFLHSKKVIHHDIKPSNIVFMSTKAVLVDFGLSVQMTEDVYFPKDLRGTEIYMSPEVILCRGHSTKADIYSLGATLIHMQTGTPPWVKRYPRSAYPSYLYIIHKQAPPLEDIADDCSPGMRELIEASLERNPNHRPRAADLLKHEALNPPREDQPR

SMILES	IC50 ([1]; IC50 HTRF) [µM]	EC50 [2, 3] [µM]	IC50 ([1]; read-out: IC50 HTRF) [µM]	EC50 ([2]; read-out: EC50 TNF, LPS-stimulated human monocytes, TNFα) [µM]
N#CCC[C@@H](Nc1c(C#N)cnc2c(Cl)cc(N[C@H](c3cn(C4CC4)nn3)c3cccc4ncsc34)cc12)c1ccccc1 [Example 69, 6-(((S)-benzo[d]thiazol-7-yl(1-cyclopropyl-1H-1,2,3-triazol-4-yl)methyl)amino)-8-chloro-4-(((R)-3-cyano-1-phenylpropyl)amino)quinoline-3-carbonitrile]	0.002	0.033		
CC(C)(C)CNc1c(C#N)cnc2c(C#N)cc(N[C@H](c3cn(C4CC4)nn3)c3cccc4cnccc34)cc12 [Example 468, (S)-6-(((1-cyclopropyl-1H-1,2,3-triazol-4-yl)(isoquinolin-5-yl)methyl)amino)-4-(neopentylamino)quinoline-3,8-dicarbonitrile]	0.001	0.018		
CCN1CCC(n2cc([C@H](c3cccnc3)N(CC)c3cc(Cl)c4ncc(C#N)c(Nc5ccc(F)c(Cl)c5)c4c3)nn2)CC1 [Example 368, (S)-8-chloro-4-((3-chloro-4-fluorophenyl)amino)-6-(ethyl((1-(1-ethylpiperidin-4-yl)-1H-1,2,3-triazol-4-yl)(pyridin-3-yl)methyl)-amino)quinoline-3-carbonitrile]	0.649	6.3		
Cn1ccc2c([C@H](Nc3cc(Cl)c4ncc(C#N)c(NCC(C)(C)C)c4c3)c3cn(C4(C5CC5)CC4)nn3)cccc2c1=O [Example 779, (S)-6-(((1-([1,1′-bi(cyclopropan)]-1-yl)-1H-1,2,3-triazol-4-yl)(2-methyl-1-oxo-1,2-dihydroisoquinolin-5-yl)methyl)amino)-8-chloro-4-(neopentylamino)quinoline-3-carbonitrile]	0.003	0.026		
Cc1nc(F)ccc1[C@H](Nc1cc(F)c2ncc(C#N)c(NCC(C)(C)C)c2c1)c1cn(C2(C(N)=O)CCC2)nn1 [Example 487, (S)-1-(4-(((3-cyano-8-fluoro-4-(neopentyl-amino)quinolin-6-yl)amino)(6-fluoro-2-methylpyridin-3-yl)methyl)-1H-1,2,3-triazol-1-yl)cyclobutane-1-carboxamide]	0.001	0.245		
CC(C)(C)CNc1c(C#N)cnc2c(Cl)cc(N[C@H](c3cn(C4(C(F)F)CC4)nn3)c3cccc4ncsc34)cc12 [Example 421, (S)-6-((benzo[d]thiazol-7-yl(1-(1-(difluoromethyl)cyclopropyl)-1H-1,2,3-triazol-4-yl)methyl)amino)-8-chloro-4-(neopentylamino)quinoline-3-carbonitrile]	0.004	0.1		
CC(C)(C)CNc1c(C#N)cnc2c(Cl)cc(N[C@H](c3cn(C4CC4)nn3)c3cccn4cncc34)cc12 [Example 446, (S)-8-chloro-6-(((1-cyclopropyl-1H-1,2,3-triazol-4-yl)(imidazo[1,5-a]pyridin-8-yl)methyl)amino)-4-(neopentylamino)-quinoline-3-carbonitrile]	0.003	0.156		
[2H][C@](Nc1cc(C#N)c2ncc(C#N)c(NCC(C)(C)C)c2c1)(c1ccc(F)nc1)c1cn(C2CC2)nn1 [Example 116, (S)-6-(((1-cyclopropyl-1H-1,2,3-triazol-4-yl)(6-fluoropyridin-3-yl)methyl-d)amino)-4-(neopentylamino)quinoline-3,8-dicarbonitrile]	0.003	0.144		
Cn1ccc2c([C@H](Nc3cc(Cl)c4ncc(C#N)c(NCC(C)(C)C)c4c3)c3cn(C45CC(C4)C5)nn3)cccc21 [Example 735, (S)-6-(((1-(bicyclo[1.1.1]pentan-1-yl)-1H-1,2,3-triazol-4-yl)(1-methyl-1H-indol-4-yl)methyl)amino)-8-chloro-4-(neopentylamino)quinoline-3-carbonitrile]	0.047	0.478		
N#Cc1cnc2c(Cl)cc(N[C@H](c3c[nH]nn3)c3csc4c3CCN(C3COC3)C4)cc2c1Nc1cccc(Cl)c1F [Example 246, (S)-8-chloro-4-((3-chloro-2-fluorophenyl)amino)-6-(((6-(oxetan-3-yl)-4,5,6,7-tetrahydrothieno[2,3-c]pyridin-3-yl)(1H-1,2,3-triazol-4-yl)methyl)amino)quinoline-3-carbonitrile]	0.006	0.652		
Cc1nc(F)ccc1[C@H](Nc1cc(Cl)c2ncc(C#N)c(NCC(C)(C)C(F)(F)F)c2c1)c1cn(C2(C(F)F)CC2)nn1 [Example 727, (S)-8-chloro-6-(((1-(1-(difluoromethyl)cyclopropyl)-1H-1,2,3-triazol-4-yl)(6-fluoro-2-methylpyridin-3-yl)methyl)amino)-4-((3,3,3-trifluoro-2,2-dimethylpropyl)amino)quinoline-3-carbonitrile]	0.003	0.048		
N#Cc1cnc2c(Cl)cc(N[C@@H](c3cncc(Cl)c3)c3cn(C4CC4)nn3)cc2c1Nc1cnc(F)c(F)c1 [Example 146, (S)-8-chloro-6-(((5-chloropyridin-3-yl)(1-cyclopropyl-1H-1,2,3-triazol-4-yl)methyl)amino)-4-((5,6-difluoropyridin-3-yl)amino)-quinoline-3-carbonitrile]	0.01	0.37		
[2H]C([2H])([2H])C([2H])([2H])[C@@]([2H])(Nc1c(C#N)cnc2c(Cl)cc(N[C@@]([2H])(c3ccc(F)nc3)c3cn(C4CC4)nn3)cc12)c1ccccc1 [Example 109, 8-chloro-6-(((S)-(1-cyclopropyl-1H-1,2,3-triazol-4-yl)(6-fluoropyridin-3-yl)methyl-d)amino)-4-(((R)-1-phenylpropyl-1,2,2,3,3,3-d6)amino)quinoline-3-carbonitrile]	0.002	0.054		
Cn1ccc2c([C@H](Nc3cc(Cl)c4ncc(C#N)c(NCC(C)(C)C)c4c3)c3cn(C4CC4)nn3)cccc2c1=O [Example 745, (S)-8-chloro-6-(((1-cyclopropyl-1H-1,2,3-triazol-4-yl)(2-methyl-1-oxo-1,2-dihydroisoquinolin-5-yl)methyl)amino)-4-(neopentylamino)quinoline-3-carbonitrile]	0.002	0.028		
Cc1nc(F)ccc1[C@@H](Nc1cc(Cl)c2ncc(C#N)c(NC3[C@H]4CCC[C@H]34)c2c1)c1cn(C2(C(F)(F)F)CC2)nn1 (stereo partly drawn) [Example 607, 4-(((lR,5S)-bicyclo[3.1.0]hexan-6-yl)amino)-8-chloro-6-(((S)-(6-fluoro-2-methylpyridin-3-yl)(1-(1-(trifluoromethyl)cyclopropyl)-1H-1,2,3-triazol-4-yl)methyl)amino)quinoline-3-carbonitrile]			0.021	0.225
CCC1(n2cc([C@@H](Nc3cc(Cl)c4ncc(C#N)c(NCC(C)(C)C)c4c3)c3ccc(F)nc3C)nn2)CC1 [Example 754, (S)-8-chloro-6-(((1-(1-ethylcyclopropyl)-1H-1,2,3-triazol-4-yl)(6-fluoro-2-methylpyridin-3-yl)methyl)amino)-4-(neopentylamino)quinoline-3-carbonitrile]	0.003	0.031		
Cn1nnc2cccc([C@H](Nc3cc(Cl)c4ncc(C#N)c(NCC(C)(C)C)c4c3)c3cn(C4(C(F)F)CC4)nn3)c21 [Example 542, (S)-8-chloro-6-(((1-(1-(difluoromethyl)-cyclopropyl)-1H-1,2,3-triazol-4-yl)(1-methyl-1H-benzo[d][1,2,3]triazol-7-yl)methyl)amino)-4-(neopentylamino)-quinoline-3-carbonitrile]	0.002	0.04		
